What is called melting point is the temperature of the solid-liquid transition.

This note sets out measurements from a melting point compilation (Tetko et al.).

Regarding `CCN(CC)C(=O)c1ccc(N)cc1`, the melting point fell in the range of 118 to 120 °C.

Take `CN(C)S(=O)(=O)c1ccc(Cl)c(C(=O)O)c1`: the melting point is 181 to 183 °C.

In turn, `c1ccc(CCCc2nnn[nH]2)cc1` gave a melting point of 90 to 92 °C.

`CSC(=C(C#N)C#N)N1CCOCC1` returned a melting point of 143 to 145 °C.

In the case of `COCCSc1ccc([N+](=O)[O-])cc1C(=O)O`, the melting point is 159 to 161 °C.

In the case of `Cc1ccccc1NC(=O)CC#N`, the melting point was in the range of 133 to 135 °C.

In turn, `CC(C)(C(=O)O)C(O)c1cccc(OCc2ccccc2)c1` (stereo not drawn) showed a melting point of 125 to 127 °C.

`O=C(O)C1CCCN1C(=O)c1cncn1-c1ccccc1` (stereo not drawn) gave a melting point of 133 to 135 °C.

For `CS(=O)(=O)Nc1cc(N)ccc1F`, the melting point lay within 154 to 156 °C.

As to `CC1(C)Cc2ccccc2C1=O`, the melting point lay in the range of 41 to 43 °C.

As to `CN(C)S(=O)(=O)c1c[nH]c(C(=O)O)c1`, the melting point lay within 197 to 199 °C.

`Cc1ccccc1C(C)CC(=O)O` (stereo not drawn) came in with a melting point of 47 to 49 °C.

As to `Cc1ccc(C(=O)c2ccccc2C(=O)O)cc1C`, the melting point was in the range of 166 to 168 °C.

The compound `CC(C)n1cnnc1S` came in with a melting point of 116 to 118 °C.

`O=C(NC(C(=O)O)c1ccccc1)c1cccs1` (stereo not drawn) displayed a melting point of 185 to 187 °C.

With `Nc1cnn(-c2ccccc2)c1`, the melting point is 95 to 97 °C.

Consider `CC(C)n1ccc(=O)nc1S`, for which the melting point lay in the range of 254 to 256 °C.

Consider `Nn1c(=O)[nH]c2ccccc2c1=O`, for which the melting point was 297 to 299 °C.

`OCCNc1ccc(Cl)nn1`: the melting point is 133 to 135 °C.

For `CCOC(=O)c1ccn[nH]1`, the melting point fell in the range of 159 to 161 °C.

Compound `O=C(O)c1cccc(CS)c1` showed a melting point of 104 to 106 °C.

Take `COc1ccc(C(C)(C)C(=O)O)cc1OC`: the melting point fell in the range of 84 to 86 °C.

Compound `O=C1NC(=O)C2(CCCc3ccccc32)N1` (stereo not drawn) returned a melting point of 203 to 205 °C.

Turning to `O=S(=O)(Cl)c1c(Cl)ccc2ccccc12`, the melting point was 65 to 67 °C.

`O=C(O)C1CCCCS1(=O)=O` (stereo not drawn) had a melting point of 166 to 168 °C.

Take `CC(C)c1c(C(=O)O)cnn1-c1ccc(C(F)(F)F)cn1`: the melting point is 168 to 170 °C.

Compound `COC(=O)c1cccc(C(N)=NO)c1` gave a melting point of 102 to 104 °C.

Compound `Cc1ccc(-c2cn[nH]c2)cc1` returned a melting point of 217 to 219 °C.

Regarding `CC(Cl)C(=O)NC(N)=O` (stereo not drawn), the melting point is 159 to 161 °C.

As to `Cc1nn(C)c2[nH]nc(N)c12`, the melting point is 135 to 137 °C.

In turn, `O=C(O)c1ccc(Cl)c(S(=O)(=O)N2CCOCC2)c1` registered a melting point of 176 to 178 °C.

Consider `Nc1cnc(Cl)c(C(=O)O)c1`, for which the melting point lay within 193 to 195 °C.

As for `O=c1[nH]c(-c2ccccc2)no1`, the melting point was in the range of 184 to 186 °C.

Turning to `Cc1ccc(Br)c2cccnc12`, the melting point lay in the range of 34 to 36 °C.

The compound `Cc1nccn1-c1ccc(C(F)(F)F)cc1N` yielded a melting point of 183 to 185 °C.

On to `FC(F)(F)Cc1nnc2ccc(Cl)nn12`, for which the melting point was in the range of 137 to 139 °C.

As to `CC(=O)c1nnn(-c2ccc(C)cc2)c1C`, the melting point was 111 to 113 °C.

With `NC(=NO)c1ccc(COc2ccccc2F)cc1`, the melting point is 135 to 137 °C.

`CN(C)S(=O)(=O)c1ccc(S(=O)(=O)Cl)cc1` displayed a melting point of 134 to 136 °C.

Compound `c1c[nH]c(C2CCNCC2)n1` registered a melting point of 176 to 178 °C.

`COc1ccc(S(N)(=O)=O)cc1N`: the melting point was in the range of 145 to 147 °C.

Regarding `CN1CCN(CCOc2ccc(N)cc2)CC1`, the melting point lay within 63 to 65 °C.

In turn, `O=C(O)CC1CCOCC1` showed a melting point of 59 to 61 °C.

The compound `O=C(O)c1ccc(NC(=O)C2CC2)s1` registered a melting point of 205 to 207 °C.

Take `O=C(O)C(Oc1cccc(Cl)c1Cl)c1ccccc1` (stereo not drawn): the melting point is 147 to 149 °C.

`CC1CNC(=O)N1c1cccc(N)c1` (stereo not drawn): the melting point was 169 to 171 °C.

As to `NS(=O)(=O)c1cccnc1Cl`, the melting point was in the range of 183 to 185 °C.

For the compound `O=C(O)c1ccc(NC(=O)c2ccccn2)cc1`, the melting point was in the range of 263 to 265 °C.

`CCCNS(=O)(=O)c1cccc(C(=O)O)c1` yielded a melting point of 199 to 201 °C.

In turn, `NC(=O)c1cccc(C(N)=S)c1` yielded a melting point of 210 to 212 °C.

Consider `COc1ccc(S(=O)(=O)NC(C)(C)C)cc1N`, for which the melting point was 119 to 121 °C.

`COC(=O)c1cc(OC)c(S(=O)(=O)O)s1` yielded a melting point of 109 to 111 °C.

In turn, `Cc1nnnn1C(Cc1ccc(F)cc1)C(=O)O` (stereo not drawn) gave a melting point of 152 to 154 °C.

For `O=C(O)CN1C(=O)COc2ccccc21`, the melting point lay within 229 to 231 °C.

The compound `COc1cc(C(=O)O)ccc1OCc1ccc(Br)cc1` came in with a melting point of 224 to 226 °C.

As for `NC(=O)C1(O)Cc2ccccc2C1`, the melting point lay in the range of 186 to 188 °C.

`COC(=O)c1cncc(C(=O)O)c1` gave a melting point of 225 to 227 °C.

In turn, `Cc1csc(-c2cccc(C(=O)O)c2)n1` yielded a melting point of 192 to 194 °C.

For `Nc1ccc(F)c(NS(=O)(=O)c2ccccc2)c1`, the melting point was 143 to 145 °C.

Regarding `O=C(O)CCc1nc(-c2ccoc2)no1`, the melting point lay within 143 to 145 °C.

On to `O=C(O)CCC(=O)NCC(=O)c1ccc(F)cc1F`, for which the melting point lay within 173 to 175 °C.

`O=C(O)CSCC(=O)Nc1cccc(Br)c1` displayed a melting point of 63 to 65 °C.

`Cc1nn(-c2ccccc2)c(CCl)c1C#N` yielded a melting point of 130 to 132 °C.

Turning to `CCc1ccc2c(c1)C(=O)C(=O)N2`, the melting point is 114 to 116 °C.

Consider `N#CC=Cc1cccnc1`, for which the melting point was 104 to 106 °C.

In the case of `CC(=O)OCC(N)=S`, the melting point fell in the range of 75 to 77 °C.

As for `O=C(O)c1c[nH]c(-c2ccccc2)n1`, the melting point was in the range of 240 to 242 °C.

`Cc1cc(S(=O)(=O)Cl)cnc1Cl`: the melting point was 54 to 56 °C.

The compound `CN(C)S(=O)(=O)c1cncc(C=CC(=O)O)c1` displayed a melting point of 242 to 244 °C.

For `O=S(=O)(Cl)c1sc(Cl)nc1Cl`, the melting point lay in the range of 57 to 59 °C.

Compound `COC(=O)c1ccc(OCC#N)cc1` yielded a melting point of 95 to 97 °C.

Consider `Nc1nc(-c2sccc2Br)cs1`, for which the melting point was in the range of 151 to 153 °C.

`COc1cc(OC)c(NC(=O)c2cc3ccccc3cc2O)cc1Cl` returned a melting point of 199 to 201 °C.

With `O=C1Nc2c(Cl)cc(Br)cc2C1=O`, the melting point is 225 to 227 °C.

In turn, `O=C1CC(=O)Nc2ccccc2N1` returned a melting point of 383 to 385 °C.

Take `Nc1ccc(C(=O)N2CCCC2c2ccccc2)cc1` (stereo not drawn): the melting point lay within 120 to 122 °C.

In turn, `CCCCn1c(N)c(NCc2ccccc2OC)c(=O)[nH]c1=O` gave a melting point of 198 to 200 °C.

Take `Cc1nc(Cl)cc(-c2ccncc2)n1`: the melting point is 111 to 113 °C.

For `COCC(C)C(N)=S` (stereo not drawn), the melting point fell in the range of 42 to 44 °C.

`COc1cc(C(=O)O)ccc1OCc1ccccc1`: the melting point is 174 to 176 °C.

Take `O=Cc1ccc(N2CCNC(=O)C2)cc1`: the melting point lay in the range of 192 to 194 °C.

Take `Cc1cccc(N2CCN(Cc3ccc(N)cc3)CC2)c1`: the melting point lay within 103 to 105 °C.

Compound `NNC(=O)C(=O)NCc1ccc(Cl)cc1` had a melting point of 191 to 193 °C.

Compound `CS(=O)(=O)Nc1cccc(Br)c1` registered a melting point of 113 to 115 °C.

For the compound `O=C(O)C(Oc1ccc(Cl)c(Cl)c1)c1ccccc1` (stereo not drawn), the melting point was in the range of 59 to 61 °C.

`O=C(O)c1cnc(C2CC2)s1` registered a melting point of 187 to 189 °C.

`Cc1ccc(S(=O)(=O)Nc2ccc(Cl)cc2)cc1N` showed a melting point of 104 to 106 °C.

The compound `Cc1noc(C2CC2)c1NC(=O)OC(C)(C)C` displayed a melting point of 108 to 110 °C.

In turn, `N#Cc1cc2c([nH]c1=O)CCN(CCc1ccccc1)C2` yielded a melting point of 219 to 221 °C.

For the compound `COc1ccc(OC)c(C(F)(F)C(=O)O)c1`, the melting point lay in the range of 81 to 83 °C.

In the case of `Cc1cc(N)nn1-c1ccc(Cl)c(Cl)c1`, the melting point lay in the range of 124 to 126 °C.

The compound `CCOC(=O)c1n[nH]sc1=N` yielded a melting point of 126 to 128 °C.

Compound `CCOc1ccc(NC(=S)NN)cc1` returned a melting point of 178 to 182 °C.

`CC(=O)N(C)c1ccc(S(N)(=O)=O)cc1`: the melting point was in the range of 153 to 155 °C.

As for `Fc1ccc2c(c1)NCCC2`, the melting point lay within 46 to 48 °C.

With `CCOC(=O)c1c(NC(=O)CCl)sc(C)c1CC`, the melting point was in the range of 97 to 99 °C.

Take `O=C1C=C(Br)C(=O)N1c1ccccc1`: the melting point was in the range of 159 to 161 °C.

In turn, `O=C(O)c1ccc(N2CCCCC2=O)cc1` returned a melting point of 213 to 215 °C.

`CCOc1ccc(C(=O)CBr)cc1`: the melting point is 57 to 59 °C.

Turning to `CCC1(C)NC(=O)N(CC(=O)O)C1=O` (stereo not drawn), the melting point was in the range of 156 to 158 °C.

In turn, `O=C1CNC(=O)c2ccccc2N1` displayed a melting point of 324 to 326 °C.

As for `O=C(O)c1cc(/C=C/c2ccc(C(F)(F)F)cc2)nc2ccc(Br)cc12`, the melting point was in the range of 316 to 318 °C.

In turn, `O=[N+]([O-])c1ccc(-c2c[nH]cn2)cc1` had a melting point of 224 to 226 °C.

Regarding `NC(=O)c1cc(N)ccc1Cl`, the melting point was 153 to 155 °C.

With `Cc1cc(C)n2nc(N)nc2n1`, the melting point was 369 to 371 °C.

Compound `NCCCNC(=O)c1cccc(O)c1` displayed a melting point of 136 to 138 °C.

For `CNC1(C(N)=O)CCCC1`, the melting point was in the range of 99 to 101 °C.

For `CCCS(=O)(=O)c1ccc(C(=O)O)cc1`, the melting point fell in the range of 193 to 195 °C.

In turn, `CSc1nn(C)c(N)c1C(N)=O` registered a melting point of 173 to 175 °C.

Take `Nc1ccc(OCc2cccc(F)c2)c(Cl)c1`: the melting point lay within 79 to 81 °C.

Consider `CNC(=O)c1ccc(C)c(N)c1`, for which the melting point was 167 to 169 °C.

With `NC(=O)c1ccc(N)cc1N1CCCCC1`, the melting point was 142 to 144 °C.

Turning to `Cc1onc2c(=O)[nH]nc(-c3ccccc3)c12`, the melting point was in the range of 235 to 237 °C.

On to `CC(=Cc1cccc(Cl)c1)C(=O)O`, for which the melting point lay within 99 to 101 °C.

`CC(O)CNS(=O)(=O)c1ccc(C(=O)O)cc1` (stereo not drawn): the melting point fell in the range of 208 to 210 °C.

Compound `CC(C)(C)OC(=O)N1CCc2cc(N)ccc21` came in with a melting point of 84 to 86 °C.

Take `C#CCOc1ccc(NC)cc1`: the melting point lay in the range of 46 to 48 °C.

In the case of `CC(Cl)C(=O)N1CCSc2ccccc21` (stereo not drawn), the melting point is 81 to 83 °C.

For the compound `COc1ccccc1-c1c[nH]cc1C(=O)O`, the melting point was in the range of 195 to 197 °C.

The compound `CN1CCN(C(=O)C2CNc3ccccc3O2)CC1` (stereo not drawn) had a melting point of 132 to 134 °C.

With `CC(=O)Cc1ccc(-c2ccccc2)cc1`, the melting point lay within 49 to 51 °C.

`Cc1ccc(C(=O)CC#N)s1`: the melting point lay within 105 to 107 °C.

With `NCC(O)c1cccc(F)c1` (stereo not drawn), the melting point lay in the range of 42 to 44 °C.
